Results as given in ChEMBL document CHEMBL1201862, “PubChem BioAssay data set” (2004).
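How tested: cells in 96-well plates exposed to compound for 48 hours at five concentrations. GI50 = concentration required for 50% inhibition of growth.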 Activity calls are given as the source filed them. Cut-off read from the data, not from the text of the source: active = GI50 up to about 1.1 µM and inactive = higher.

How the values were obtained:
Test in all cases: inhibition of tumour cell growth, NCI panel, 48 h
SF-539 = system: SF-539
UACC-257 = system: UACC-257
HT-29 = system: HT-29
TK-10 = system: TK-10
786-0 = system: 786-0
NCI-H226 = system: NCI-H226
UO-31 = system: UO-31
RPMI-8226 = system: RPMI-8226
A498 = system: A498
SNB-75 = system: SNB-75
K562 = system: K562
NCI-H460 = system: NCI-H460
SN12C = system: SN12C
EKVX = system: EKVX
SR = system: SR
IGROV-1 = system: IGROV-1
OVCAR-4 = system: OVCAR-4
SK-MEL-28 = system: SK-MEL-28

Measured: GI50

[Zn+2][N+]12CCN3CCN4CCN(CC1)[PH]432 (stereo not given)
inactive: SF-539 > 100 µM | UACC-257 > 100 µM | HT-29 > 100 µM | TK-10 > 100 µM | 786-0 > 100 µM | NCI-H226 > 100 µM | UO-31 > 100 µM | RPMI-8226 > 100 µM | A498 > 100 µM | SNB-75 > 100 µM | K562 > 100 µM | NCI-H460 > 100 µM | SN12C > 100 µM | EKVX > 100 µM | SR > 100 µM | IGROV-1 > 100 µM | OVCAR-4 > 100 µM | SK-MEL-28 > 100 µM

CC(=O)NC(ON1C(=O)COc2ccccc21)C(Cl)(Cl)Cl (stereo not given)
inactive: SF-539 > 100 µM | UACC-257 > 100 µM | HT-29 > 100 µM | TK-10 > 100 µM | 786-0 > 100 µM | NCI-H226 33.4 µM | UO-31 > 100 µM | RPMI-8226 > 100 µM | SNB-75 > 100 µM | K562 > 100 µM | NCI-H460 > 100 µM | SN12C > 100 µM | SR > 100 µM | IGROV-1 > 100 µM | OVCAR-4 > 100 µM | SK-MEL-28 > 100 µM

COC(=O)/C(=N\NC(N)=O)C(C(=O)C=C(C)C)C(=O)C(=O)Nc1ccc(Cl)c(Cl)c1 (stereo not given)
inactive: SF-539 > 100 µM | UACC-257 > 100 µM | HT-29 > 100 µM | TK-10 > 100 µM | 786-0 > 100 µM | NCI-H226 > 100 µM | UO-31 > 100 µM | A498 > 100 µM | SNB-75 > 100 µM | K562 > 100 µM | NCI-H460 > 100 µM | SN12C > 100 µM | EKVX > 100 µM | SR > 100 µM | IGROV-1 > 100 µM | OVCAR-4 > 100 µM | SK-MEL-28 > 100 µM

CCOC(=O)C(=O)Nc1c(C)cccc1C(C)C
inactive: SF-539 > 100 µM | UACC-257 > 100 µM | HT-29 > 100 µM | TK-10 > 100 µM | 786-0 > 100 µM | NCI-H226 > 100 µM | UO-31 > 100 µM | RPMI-8226 > 100 µM | A498 > 100 µM | SNB-75 51.2 µM | K562 > 100 µM | NCI-H460 > 100 µM | SN12C > 100 µM | EKVX > 100 µM | SR > 100 µM | IGROV-1 > 100 µM | OVCAR-4 > 100 µM | SK-MEL-28 > 100 µM

COC(=O)/C(=N/NC(=O)C[N+](C)(C)C)C(C(=O)OC)C(=O)C(=O)Nc1ccc(F)cc1 (stereo not given)
inactive: SF-539 > 100 µM | UACC-257 > 100 µM | HT-29 > 100 µM | TK-10 > 100 µM | 786-0 > 100 µM | NCI-H226 > 100 µM | UO-31 > 100 µM | RPMI-8226 > 100 µM | A498 63.7 µM | SNB-75 > 100 µM | K562 > 100 µM | NCI-H460 > 100 µM | SN12C > 100 µM | EKVX > 100 µM | SR > 100 µM | IGROV-1 > 100 µM | OVCAR-4 > 100 µM | SK-MEL-28 > 100 µM

CSc1nc(-c2ccccc2)nc(N2CCOCC2)[s+]1
inactive: SF-539 > 100 µM | HT-29 53.1 µM | TK-10 > 100 µM | 786-0 > 100 µM | NCI-H226 > 100 µM | UO-31 > 100 µM | A498 > 100 µM | SNB-75 > 100 µM | K562 37.6 µM | NCI-H460 39 µM | SN12C > 100 µM | EKVX > 100 µM | SR 16.6 µM | IGROV-1 > 100 µM | OVCAR-4 > 100 µM | SK-MEL-28 > 100 µM

COc1ccc(C(C#N)NNC(=O)Cc2ccccc2)cc1OC (stereo not given)
inactive: SF-539 > 100 µM | UACC-257 > 100 µM | HT-29 > 100 µM | TK-10 > 100 µM | 786-0 > 100 µM | NCI-H226 > 100 µM | UO-31 > 100 µM | RPMI-8226 > 100 µM | SNB-75 39.9 µM | K562 > 100 µM | NCI-H460 > 100 µM | SN12C > 100 µM | SR > 100 µM | IGROV-1 > 100 µM | OVCAR-4 > 100 µM | SK-MEL-28 > 100 µM

Cc1cc(Cl)ccc1NC(=O)CCCC(=O)C1CCC/C1=N\NC(=O)CC#N (stereo not given)
inactive: SF-539 > 100 µM | UACC-257 > 100 µM | HT-29 > 100 µM | TK-10 > 100 µM | 786-0 > 100 µM | NCI-H226 > 100 µM | UO-31 > 100 µM | RPMI-8226 75.3 µM | A498 > 100 µM | SNB-75 > 100 µM | K562 > 100 µM | NCI-H460 > 100 µM | SN12C > 100 µM | EKVX > 100 µM | IGROV-1 > 100 µM | OVCAR-4 > 100 µM | SK-MEL-28 > 100 µM

Cc1ccc(S(=O)(=O)SCc2ccccc2)cc1
inactive: SF-539 23.4 µM | UACC-257 31.9 µM | HT-29 22.9 µM | TK-10 > 55.7 µM | 786-0 17.3 µM | NCI-H226 21 µM | UO-31 > 92.5 µM | RPMI-8226 10.1 µM | A498 52.8 µM | SNB-75 > 49.3 µM | K562 4.57 µM | NCI-H460 28.5 µM | SN12C 20.8 µM | EKVX 43.8 µM | SR 28 µM | IGROV-1 39.1 µM | OVCAR-4 15.5 µM | SK-MEL-28 50 µM

COc1ccccc1NC(=O)CC(=O)NNCC(=O)Nc1nnc(-c2ccccc2)o1
inactive: SF-539 > 100 µM | UACC-257 > 100 µM | HT-29 > 100 µM | TK-10 > 100 µM | 786-0 > 100 µM | NCI-H226 > 100 µM | UO-31 > 100 µM | RPMI-8226 > 100 µM | A498 > 100 µM | SNB-75 > 100 µM | K562 > 100 µM | SN12C > 100 µM | EKVX > 100 µM | SR > 100 µM | IGROV-1 > 100 µM | OVCAR-4 > 100 µM | SK-MEL-28 > 100 µM

Cc1ccccc1NC(=O)Cc1nc2ccccc2s1
inactive: SF-539 18.9 µM | UACC-257 17.1 µM | HT-29 19.6 µM | TK-10 23.8 µM | 786-0 17.7 µM | NCI-H226 18.9 µM | UO-31 11.5 µM | A498 19.2 µM | SNB-75 61 µM | K562 18.3 µM | NCI-H460 19.4 µM | SN12C 16.6 µM | EKVX 19.7 µM | SR 13.1 µM | IGROV-1 > 10 µM | OVCAR-4 17.3 µM | SK-MEL-28 17.7 µM

Nc1ccc(C(=O)N/C(=C\c2cccc([N+](=O)[O-])c2)c2nc3cc(Cl)ccc3[nH]2)cc1
inactive: SF-539 > 100 µM | HT-29 > 100 µM | TK-10 > 100 µM | 786-0 92 µM | UO-31 36.1 µM | K562 > 100 µM | SN12C > 100 µM | EKVX > 100 µM | SR > 100 µM | IGROV-1 > 100 µM | OVCAR-4 50.4 µM | SK-MEL-28 > 100 µM
